Assay results from the supplement of paper PMC10307832.

Experiments:
Assay in all cases: relative viability (nuclei count vs DMSO), 5 days (fraction); higher = more cells survive
[1] = compound: N#CC[C@H](C1CCCC1)n1cc(-c2ncnc3[nH]ccc23)cn1 [Ruxolitinib] + O=C(c1cc(Cc2n[nH]c(=O)c3ccccc23)ccc1F)N1CCN(C(=O)C2CC2)CC1 [Olaparib] (partner 8 µM)
How it was run: (§1)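 Medians of duplicate plates are given as relative viability. That measure is the nuclei count in treated wells divided by the count in vehicle wells. Counts were taken on 4× images of lung cancer cell lines in 1536-well plates, 5 days after pin-tool dosing the day after seeding with one drug alone or a fixed anchor-drug dose plus five library-drug doses (not always all listed) in √10 steps.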

[2] = compound: N#CC[C@H](C1CCCC1)n1cc(-c2ncnc3[nH]ccc23)cn1 [Ruxolitinib] + CS(=O)(=O)N1CCN(Cc2cc3nc(-c4cccc5[nH]ncc45)nc(N4CCOCC4)c3s2)CC1 [Pictilisib] (partner 1 µM)
How it was run: as §1

[3] = compound: N#CC[C@H](C1CCCC1)n1cc(-c2ncnc3[nH]ccc23)cn1 [Ruxolitinib] + CC(C)C[C@H](NC(=O)[C@H](Cc1ccccc1)NC(=O)c1cnccn1)B(O)O [Bortezomib] (partner 0.002 µM)
How it was run: as §1

[4] = compound: CS(=O)(=O)c1ccc(-c2cnc(N)c(C(=O)Nc3ccccc3)n2)cc1 [VE-821] + Cc1cc(Nc2cc(N3CCN(C)CC3)nc(Sc3ccc(NC(=O)C4CC4)cc3)n2)n[nH]1 [Tozasertib] (partner 0.1 µM)
How it was run: as §1

Cell Line	relative viability ([1]; first compound 0.08 µM)	relative viability ([1]; first compound 0.253 µM)	relative viability ([1]; first compound 0.8 µM)	relative viability ([1]; first compound 2.53 µM)	relative viability ([1]; first compound 8 µM)	relative viability ([2]; first compound 0.08 µM)	relative viability ([2]; first compound 0.253 µM)	relative viability ([2]; first compound 0.8 µM)	relative viability ([2]; first compound 2.53 µM)	relative viability ([2]; first compound 8 µM)	relative viability ([3]; first compound 0.08 µM)	relative viability ([3]; first compound 0.253 µM)	relative viability ([3]; first compound 0.8 µM)	relative viability ([3]; first compound 2.53 µM)	relative viability ([3]; first compound 8 µM)	relative viability ([4]; first compound 0.08 µM)	relative viability ([4]; first compound 0.253 µM)	relative viability ([4]; first compound 0.8 µM)	relative viability ([4]; first compound 2.53 µM)	relative viability ([4]; first compound 8 µM)
NCI-H2126	0.923	0.933	0.958	0.879	0.811	0.493	0.472	0.531	0.55	0.582	1.12	1.21	1.24	1.15	1.18	0.911	0.911	0.671	0.703	0.518
H3255	0.532	0.547	0.539	0.443	0.457	0.206	0.435	0.516	0.427	0.48	–	0.595	0.836	0.6	0.598	0.74	0.777	0.633	0.639	0.612
NCI-H1915	0.249	0.255	0.265	0.208	0.236	0.894	0.925	0.952	0.803	0.835	0.956	0.955	0.91	0.961	0.905	0.472	0.45	0.341	0.35	0.303
NCI-H23	0.371	0.369	0.311	0.242	0.17	0.519	0.474	0.603	0.439	0.415	1.12	1.02	1.34	0.89	0.731	0.323	0.559	0.263	0.192	0.179
EMC-BAC-2	0.465	0.482	0.478	0.478	0.406	0.534	0.495	0.57	0.495	0.384	1.12	1.06	1.15	1.06	0.811	0.344	0.306	0.322	0.253	0.277
NCI-H2009	0.701	0.712	0.684	0.575	0.482	0.913	0.901	0.987	0.508	0.658	1.19	0.963	1.31	0.828	0.646	0.871	0.74	0.633	0.737	0.734
NCI-H460	–	0.463	0.411	0.344	0.375	0.179	0.309	0.307	0.386	0.114	1.06	1.11	1.29	1.01	0.86	0.492	0.343	0.0499	0.0583	0.0489
ABC-1	–	0.886	0.892	0.505	1.02	0.875	0.742	0.867	0.705	0.738	0.324	0.303	0.325	0.284	0.285	0.201	0.17	0.15	0.181	0.16
201T	0.941	0.964	0.972	1.01	0.894	0.745	0.687	0.75	0.826	0.8	1.14	1.26	1.21	1.34	1.3	1.04	0.988	0.896	0.929	0.636
NCI-H1993	0.879	0.953	1.42	1.47	1.02	0.809	0.754	0.855	0.781	0.846	0.893	1.02	1.23	1.26	1.29	0.685	0.556	0.567	0.513	0.549
RERF-LC-KJ	0.966	0.881	0.948	0.844	0.626	0.517	0.447	0.656	0.53	0.393	1.09	1.11	1.2	1	0.986	0.539	0.478	0.483	0.349	0.274
NCI-H1755	0.897	0.812	0.925	0.772	0.792	0.425	0.43	0.469	0.329	0.297	0.984	1.04	1.03	0.853	0.658	0.667	0.543	0.539	0.532	0.428
NCI-H1666	0.74	0.759	0.797	0.786	0.698	0.384	0.453	0.483	0.415	0.611	0.685	0.833	0.861	0.781	0.96	0.625	0.684	0.646	0.644	0.603
NCI-H2085	0.781	0.804	0.755	0.64	0.588	0.564	0.469	0.419	0.463	0.611	0.964	1.06	1.26	0.904	0.822	0.875	0.759	0.494	0.459	0.368
BEN	1.16	1.27	1.24	0.96	0.994	0.494	0.583	0.647	0.53	0.584	0.634	0.693	0.824	0.747	1.16	0.591	0.579	0.495	0.631	0.589
NCI-H661	0.771	0.81	0.735	0.808	0.614	0.41	0.322	0.379	–	0.465	0.66	0.858	0.998	0.792	0.908	0.351	0.354	0.336	0.343	0.336
